Measurements taken from patent publication US12552770B2, “Compounds for treating respiratory disease” (TMEM16A Limited, priority 2020, dated 2026).

Biological target: T1, human TMEM16A (TMEM16Aabc variant) (Homo sapiens, UniProt Q5XXA6, DEL476-501)
T1 sequence (Q5XXA6 with tags, fused parts or gaps isoform Q5XXA6-5 DEL539-564): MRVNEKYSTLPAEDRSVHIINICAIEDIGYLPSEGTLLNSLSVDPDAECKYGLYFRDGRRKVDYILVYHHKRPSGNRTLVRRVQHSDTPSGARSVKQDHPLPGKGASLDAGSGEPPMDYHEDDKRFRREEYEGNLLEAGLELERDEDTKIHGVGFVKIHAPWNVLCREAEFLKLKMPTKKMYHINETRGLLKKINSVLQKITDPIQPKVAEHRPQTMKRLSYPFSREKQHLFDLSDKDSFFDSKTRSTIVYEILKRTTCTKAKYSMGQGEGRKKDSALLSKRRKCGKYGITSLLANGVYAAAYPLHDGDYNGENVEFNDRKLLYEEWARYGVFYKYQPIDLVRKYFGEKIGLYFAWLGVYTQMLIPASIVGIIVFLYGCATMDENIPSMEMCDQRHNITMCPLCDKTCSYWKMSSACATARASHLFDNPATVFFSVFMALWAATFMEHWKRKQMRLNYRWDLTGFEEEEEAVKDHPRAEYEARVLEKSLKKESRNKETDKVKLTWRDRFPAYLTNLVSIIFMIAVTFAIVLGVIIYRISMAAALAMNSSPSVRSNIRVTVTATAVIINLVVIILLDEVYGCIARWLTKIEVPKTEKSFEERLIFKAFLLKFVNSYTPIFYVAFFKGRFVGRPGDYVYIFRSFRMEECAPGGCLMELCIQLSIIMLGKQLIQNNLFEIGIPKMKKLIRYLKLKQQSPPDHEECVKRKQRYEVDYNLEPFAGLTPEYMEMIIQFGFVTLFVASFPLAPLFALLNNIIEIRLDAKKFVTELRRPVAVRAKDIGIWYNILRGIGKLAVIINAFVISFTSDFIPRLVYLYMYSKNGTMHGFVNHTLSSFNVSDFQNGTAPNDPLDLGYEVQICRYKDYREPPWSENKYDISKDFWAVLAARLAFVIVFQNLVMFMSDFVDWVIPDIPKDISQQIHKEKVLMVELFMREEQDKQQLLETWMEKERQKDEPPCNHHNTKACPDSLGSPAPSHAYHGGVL
Assay: Automated whole-cell patch clamp (Qpatch) TMEM16A potentiator assay in recombinant cells
Assay type: cell-based
Settings: FRT cells stably expressing human TMEM16A, intracellular calcium at EC20; for % Potentiation @ 3.33 μM Avg: 3.33 μM solution of test compound, percentage increase of baseline TMEM16A current, peak current at +70 mV; for EC50: calculated from cumulative concentration response curve, whole-cell patch clamp
Description: Automated Whole-Cell Patch Clamp Assay to Detect TMEM16A Activity in Recombinant Cells
Cell Culture and Preparation
Fisher rat thyroid (FRT) cells stably expressing human TMEM16A (TMEM16Aabc variant; Dr Luis Galietta, Insituto Giannina, Italy) were cultured in T-75 flasks in Hams F-12 media with Coon's modification (Sigma) supplemented with 10% (v/v) foetal bovine serum, penicillin-streptomycin (10,000 U/mL/10000 μg/mL), G-418 (750 μg/mL), L-glutamine (2 mM) and sodium bicarbonate solution (7.5% v/v). At ˜90% confluence cells were harvested for experiments by detachment with a 2:1 (v/v) mixture of Detachin (BMS Biotechnology) and 0.25% (w/v) trypsin-EDTA. Cells were diluted to a density of 3.5-4.5×10^6 cells/mL with media consisting of CHO-S-SFM II (Sigma), 25 mM HEPES (Sigma) and Soy bean trypsin inhibitor (Sigma).
Whole-Cell Patch Clamp Recording
FRT-TMEM16A cells were whole-cell patch clamped using an automated planar patch clamp system (Qpatch, Sophion). Briefly, once high resistance (GOhm) seals were established between the cells and the planar recording array the patch was ruptured using suction pulses to establish the whole-cell recording configuration of the patch clamp technique. The assay employed the following solutions (all reagents Sigma):
Intracellular solution (mM): N-methyl-D-glucamine 130, CaCl2 18.2, MgCl2 1, HEPES 10, EGTA 10, BAPTA 20, Mg-ATP 2, pH 7.25, 325 mOsm with sucrose.
Extracellular solution (mM): N-methyl-D-glucamine 130, CaCl2 2, MgCl2 1, HEPES 10, pH 7.3, 320 mOsm with sucrose.
The intracellular solution buffers intracellular calcium at levels required to give ˜20% activation of the maximal TMEM16A mediated current (EC20 for calcium ions). Cells were voltage clamped at a holding potential of −70 mV and a combined voltage step (to +70 mV)/ramp (−90 my to +90 mV) was applied at 0.05 Hz. After a period of current stabilisation test compounds, solubilised in 100% (v/v) DMSO and subsequently diluted into extracellular solution, were applied to generate a cumulative concentration response curve. Each concentration of test compound was incubated for 5 minutes before addition of the next concentration. After the final concentration was tested a supramaximal concentration of either a known active positive modulator or the TMEM16A inhibitor, CaCCinhA01 (Del La Fuente et al, 2008) was added to define the upper and lower limits of the assay.
Compound activity was quantified by measuring the increase in current upon compound addition and expressing this as a percentage increase of baseline TMEM16A current level. Percentage increases in current were determined for each concentration and the data plotted as a function of concentration using either the Qpatch software or Graphpad Prism v6.05 providing the concentration which gave 50% of its maximal effect (EC50) and maximum efficacy (percentage of baseline increase).
In FIG. 1, IBL equals baseline current, I[#1] equals the peak current during test compound concentration 1 incubation period and so on.
Peak TMEM16A current at +70 mV was plotted as a function of time over the assay period. Baseline current (IBL) was measured after a period of stabilisation. The increase in current for each compound addition was determined by taking the peak current during the incubation period and subtracting the current from the previous recording period and then expressing this as a percentage of the baseline current. For test compound concentration 1 in FIG. 1 this is:
For each additional concentration tested the increase in current was determined by subtracting the current from the previous incubation period and normalising the baseline value—for test concentration 2 in FIG. 1 this is:
The values for each test concentration were plotted as a cumulative function of concentration e.g. for test concentration two this would be the sum of the peak changes measured during concentration one plus concentration two.

% Potentiation @ 3.33 μM Avg | EC50 | SMILES
137% | 120 nM | O=C(NCC1CCCCCC1)c1ccc2[nH]c(Cc3ccccc3)nc2c1 [Example 24.2, 2-Benzyl-N-(cycloheptylmethyl)-1H-benzimidazole-5-carboxamide]
165.9% | 596 nM | O=C(CC1C2CC3CC(C2)CC1C3)Nc1ccc2[nH]c(Cc3ccc(O)cc3)nc2c1 (stereo not drawn) [Example 5.1, 2-(2-Adamantyl)-N-[2-[(4-hydroxyphenyl)methyl]-1H-benzimidazol-5-yl]acetamide]
149.1% | 808 nM | O=C(CC1C2CC3CC(C2)CC1C3)Nc1ccc2[nH]c(CCc3ccccc3)nc2c1 (stereo not drawn) [Example 2.1, 2-(2-Adamantyl)-N-[2-(2-phenylethyl)-1H-benzimidazol-5-yl]acetamide]
211.2% | 263 nM | COc1ccccc1Cc1nc2cc(NC(=O)CC3C4CC5CC(C4)CC3C5)ccc2[nH]1 (stereo not drawn) [Example 2.3, 2-(2-Adamantyl)-N-[2-[(2-methoxyphenyl)methyl]-1H-benzimidazol-5-yl]acetamide]
120% | 130 nM | O=C(NCC1CCCCCC1)c1ccc2[nH]c(Cc3ccc(F)cc3O)nc2c1 [Example 25.4, N-(Cycloheptylmethyl)-2-[(4-fluoro-2-hydroxy-phenyl)methyl]-1H-benzimidazole-5-carboxamide]

Second part, the compound before the results:

SMILES | % Potentiation @ 3.33 μM Avg | EC50
CC(C)(C)OC(=O)NCc1nc2cc(NC(=O)CC3C4CC5CC(C4)CC3C5)ccc2[nH]1 (stereo not drawn) [Example 8, tert-Butyl N-[[5-[[2-(2-adamantyl)acetyl]amino]-1H-benzimidazol-2-yl]methyl]carbamate] | 129.2% | 282 nM
CC(C)(C)c1cc(F)c(Cc2nc3cc(C(=O)NC4(C(F)(F)F)CC4)ccc3[nH]2)cc1O [Example 21, 2-[(4-tert-Butyl-2-fluoro-5-hydroxy-phenyl)methyl]-N-[1-(trifluoromethyl)cyclopropyl]-1H-benzimidazole-5-carboxamide] | 262% | 99 nM
O=C(CC12CC3CC(CC(C3)C1)C2)Nc1ccc2cn(Cc3ccccc3)nc2c1 [Example 16, 2-(1-Adamantyl)-N-(2-benzylindazol-6-yl)acetamide] | 137.3% | 502 nM
Cc1noc(C)c1-c1cccc(Cc2nc3ccc(NC(=O)CC45CC6CC(CC(C6)C4)C5)cc3[nH]2)c1 [Example 7, 2-(1-Adamantyl)-N-[2-[[3-(3,5-dimethylisoxazol-4-yl)phenyl]methyl]-3H-benzimidazol-5-yl]acetamide] | 136.5% | 1580 nM
CC(C)(C)c1cc(F)c(CC(=O)Nc2ccc3[nH]c(C4(C(F)(F)F)CC4)nc3c2)cc1O [Example 23, 2-(4-tert-Butyl-2-fluoro-5-hydroxy-phenyl)-N-[2-[1-(trifluoromethyl)cyclopropyl]-1H-benzimidazol-5-yl]acetamide] | 153% | 52 nM
O=C(CC1C2CC3CC(C2)CC1C3)Nc1ccc2[nH]c(Cc3ccccc3)nc2c1 (stereo not drawn) [Example 2, 2-(2-Adamantyl)-N-(2-benzyl-1H-benzimidazol-5-yl)acetamide] | 183.6% | 268 nM
CC(C)(C)c1nc2cc(NC(=O)Cc3cc(Cl)ccc3O)ccc2[nH]1 [Example 27, N-(2-tert-Butyl-1H-benzimidazol-5-yl)-2-(5-chloro-2-hydroxy-phenyl)acetamide] | 96% | 156 nM
O=C(NCC1CCCCCC1)c1ccc2oc(Cc3ccccc3O)nc2c1 [Example 10, N-(Cycloheptylmethyl)-2-[(2-hydroxyphenyl)methyl]-1,3-benzoxazole-5-carboxamide] | 67.7% | 122 nM
O=C(CC12CC3CC(CC(C3)C1)C2)Nc1cc2nc(Cc3ccccc3)[nH]c2cn1 [Example 14, 2-(1-Adamantyl)-N-(2-benzyl-3H-imidazo[4,5-c]pyridin-6-yl)acetamide] | 59.4% | 
CN[C@H](c1ccccc1)c1nc2cc(NC(=O)CC3C4CC5CC(C4)CC3C5)ccc2[nH]1 (stereo partly drawn) [Example 3, 2-(2-Adamantyl)-N-[2-[(R)-methylamino(phenyl)methyl]-1H-benzimidazol-5-yl]acetamide] | 108.2% | 1640 nM
O=C(CC12CC3CC(CC(C3)C1)C2)Nc1ccc2[nH]c(CNC(=O)OCC(F)(F)F)nc2c1 [Example 6, 2,2,2-Trifluoroethyl N-[[5-[[2-(1-adamantyl)acetyl]amino]-1H-benzimidazol-2-yl]methyl]carbamate] | 246.3% | 1250 nM
O=C(NCCC(F)(F)F)c1ccc2[nH]c(Cc3ccccc3)nc2c1 [Example 24, 2-Benzyl-N-(3,3,3-trifluoropropyl)-1H-benzimidazole-5-carboxamide] | 69% | 1100 nM
CC(C)(O)c1cc(F)c(CC(=O)Nc2ccc3[nH]c(C4(C(F)(F)F)CC4)nc3c2)cc1O [Example 22, 2-[2-Fluoro-5-hydroxy-4-(1-hydroxy-1-methyl-ethyl)phenyl]-N-[2-[1-(trifluoromethyl)cyclopropyl]-1H-benzimidazol-5-yl]acetamide] | 149% | 168 nM
CC(C)(CO)c1cc(F)c(Cc2nc3cc(C(=O)NCC4(C(F)(F)F)CC4)ccc3[nH]2)cc1O [Example 29, 2-[[2-Fluoro-5-hydroxy-4-(2-hydroxy-1,1-dimethyl-ethyl)phenyl]methyl]-N-[[1-(trifluoromethyl)cyclopropyl]methyl]-1H-benzimidazole-5-carboxamide] | 183% | 496 nM
O=C(CC1C2CC3CC(C2)CC1C3)Nc1ccc2[nH]c(OC3CCOC3)nc2c1 (stereo not drawn) [Example 9, 2-(2-Adamantyl)-N-(2-tetrahydrofuran-3-yloxy-1H-benzimidazol-5-yl)acetamide] | 87.4% | 841 nM
